Experimental data as given in US20240174690A1, “ANNULATED 2-AMINO-3-CYANO THIOPHENES AND DERIVATIVES FOR THE TREATMENT OF CANCER” (BOEHRINGER INGELHEIM INTERNATIONAL GMBH, priority 2021, published 2024).
In brackets after ≈: the same amount, converted by molar mass. Like-named read-outs stand apart in the source and are kept apart here.

What was measured:
[1] = tested on: KRAS G12D-dependent Ba/F3 cells; test: Ba/F3 proliferation assay, KRAS G12D; type: cell-based; conditions: Mus musculus, BaF3, 72 h, AlamarBlue
In short: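 Viability is measured as AlamarBlue fluorescence in Ba/F3 cells that depend on a transduced mutant KRAS isoform for growth without IL-3. Each treatment is run in technical duplicate, and dose-response curves are fitted.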

NCI-H2122 cells = test: NCI-H2122 CTG proliferation assay (120 h) (NSCLC, G12C); type: cell-based; conditions: Homo sapiens
In short: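 NCI-H2122 cells (KRAS G12C NSCLC), 200 per well in RPMI with 10% FCS, were dosed with compound on day 1 and incubated 120 h at 37 °C. Viability was read by CellTiter-Glo luminescence as percent of DMSO control, and IC50 was fitted with a four-parameter model.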

AsPC-1 cells = test: AsPC-1 CTG proliferation assay (120 h) (pancreatic cancer, G12D); type: cell-based; conditions: Homo sapiens, ASPC1
In short: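 AsPC-1 cells (KRAS G12D), 2000/well in RPMI with 10% FCS, seeded overnight, then treated with compound for 120 h at 37 °C. Viability by CellTiter-Glo luminescence as percent of DMSO control. IC50 from a four-parameter non-linear fit.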

LOVO cells = test: LOVO CTG proliferation assay (120 h) (CRC, G13D); type: cell-based; conditions: Homo sapiens, CTG 120 h
In short: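 LOVO cells, 1000 per well in DMEM + 10% FCS, were plated overnight and then dosed with compound from DMSO stock. After 120 h at 37 °C, viability was read by CellTiter-Glo luminescence as a percentage of DMSO controls. IC50 was derived by four-parameter non-linear regression.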

[2] = Solubility measurement (DMSO solution method), McIlvaine buffer pH 4.5 or 6.8; type: physicochemical; conditions: aqueous buffer, kinetic from dmso stock, DMSO stock diluted to 250 μM, 24 h shaking at ambient temperature
In short: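 DMSO stock diluted into McIlvaine buffer, pH 4.5 or 6.8, to 250 µM final, shaken 24 h at ambient temperature. Precipitate removed by filtration; filtrate quantified by LC-UV against a fully dissolved reference in acetonitrile/water 1:1.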

[3] = McIlvaine buffer pH 4.5, read-out: solubility pH 4.5
[4] = McIlvaine buffer pH 6.8, read-out: solubility pH 6.8

| Compound | IC50 [1] | IC50 (NCI-H2122 cells) | IC50 (AsPC-1 cells) | IC50 (LOVO cells) | solubility at 24 h [2, 3] | solubility at 24 h [2, 4] |
| --- | --- | --- | --- | --- | --- | --- |
| C[C@H](Oc1cc(N2CCN(C)C3(CC3)C2)nc(-c2onc3c2CCC[C@@]32CCCc3sc(N)c(C#N)c32)n1)[C@@H]1CCCN1C [I-41] | 0.011 µM | 3.56 µM | 0.297 µM | 0.304 µM | > 0.137 mg/mL | 0.118 mg/mL (≈ 192 µM) |
| C[C@H](Oc1cc(N2CCN(CCO)CC2)nc(-c2noc3c2CCC[C@@]32CCCc3sc(N)c(C#N)c32)n1)[C@@H]1CCCN1C [II-8] | 0.144 µM | 0.933 µM | 2.73 µM | 0.68 µM | > 0.141 mg/mL | > 0.132 mg/mL |
| C[C@H](Oc1cc(N2CC3CCC(C2)N3)nc(-c2noc3c2CCC[C@@]32CCCc3sc(N)c(C#N)c32)n1)[C@@H]1CCCN1C [II-34] | 0.051 µM | 9.01 µM | 1.42 µM | 2.4 µM | > 0.146 mg/mL | 0.114 mg/mL (≈ 190 µM) |
| C[C@H](Oc1cc(N2CC[C@@H](N(C)C)C2)nc(-c2noc3c2CCC[C@@]32CCCc3sc(N)c(C#N)c32)n1)[C@@H]1CCCN1C [II-47] | 0.04 µM | 2.02 µM | 0.991 µM | 0.459 µM | > 0.162 mg/mL | > 0.145 mg/mL |
| CO[C@@H]1C[C@@H]([C@H](C)Oc2cc(-c3ccn(C)n3)nc(-c3onc4c3CCC[C@@]43CCCc4sc(N)c(C#N)c43)n2)N(C)C1 [I-23] | 0.027 µM | 8.83 µM | 8.16 µM | 0.079 µM | 0.106 mg/mL (≈ 176 µM) | < 0.001 mg/mL |
| C[C@H](Oc1nc(-c2noc3c2CCC[C@@]32CCCc3sc(N)c(C#N)c32)cc(N2C[C@H](C)N[C@@H](C)C2)n1)[C@@H]1CCCN1C [II-46] | 0.116 µM | 0.9 µM | 2.74 µM | 1.22 µM | > 0.15 mg/mL | > 0.15 mg/mL |
| C[C@H](Oc1cc(N2CCN(C)C3(COC3)C2)nc(-c2noc3c2CCC[C@@]32CCCc3sc(N)c(C#N)c32)n1)[C@@H]1CCCN1C [II-13] | 0.024 µM | 5.02 µM | 0.251 µM | 0.061 µM | > 0.139 mg/mL | > 0.147 mg/mL |
| C[C@H](Oc1cc(-c2ccn(C[C@@H](C)O)n2)nc(-c2onc3c2CCC[C@@]32CCCc3sc(N)c(C#N)c32)n1)[C@@H]1CCCN1C [I-30] | 0.042 µM | 0.837 µM | 4.57 µM | 0.066 µM | > 0.15 mg/mL | > 0.141 mg/mL |
| C[C@H](Oc1cc(-c2cnn(C)n2)nc(-c2noc3c2CCC[C@@]32CCCc3sc(N)c(C#N)c32)n1)[C@@H]1C[C@@H](F)CN1C [II-28] | 0.09 µM | 9.48 µM | 5.07 µM | 0.72 µM | > 0.133 mg/mL | < 0.001 mg/mL |
| C[C@H](Oc1cc(N2CCNC3(CCC3)C2)nc(-c2onc3c2CCC[C@@]32CCCc3sc(N)c(C#N)c32)n1)[C@@H]1CCCN1C [I-3] | 0.005 µM | 3.37 µM | 0.273 µM | 2.16 µM | > 0.173 mg/mL | > 0.176 mg/mL |
| C[C@H](Oc1cc(-c2cnsc2)nc(-c2onc3c2CCC[C@@]32CCCc3sc(N)c(C#N)c32)n1)[C@@H]1CCCN1C [I-27] | 0.064 µM | 0.599 µM | 2.12 µM | 0.265 µM | 0.067 mg/mL (≈ 117 µM) | 0.001 mg/mL (≈ 1.74 µM) |
| C[C@H](Oc1cc(N2CCNC3(CCC3)C2)nc(-c2noc3c2CCC[C@@]32CCCc3sc(N)c(C#N)c32)n1)[C@@H]1CCCN1C [II-40] | 0.007 µM | 1.42 µM | 0.261 µM | 0.508 µM | > 0.14 mg/mL | > 0.133 mg/mL |
| CNC(=O)c1ccn(-c2cc(O[C@@H](C)[C@@H]3CCCN3C)nc(-c3noc4c3CCC[C@@]43CCCc4sc(N)c(C#N)c43)n2)n1 [II-20] | 0.016 µM | 2.04 µM | 1.03 µM | 0.158 µM | 0.083 mg/mL (≈ 135 µM) | 0.033 mg/mL (≈ 53.8 µM) |
| C[C@H](Oc1cc(-n2ccc(C(=O)NC3COC3)n2)nc(-c2noc3c2CCC[C@@]32CCCc3sc(N)c(C#N)c32)n1)[C@@H]1CCCN1C [II-25] | 0.025 µM | 0.033 µM | 0.891 µM | 0.063 µM | 0.124 mg/mL (≈ 189 µM) | 0.073 mg/mL (≈ 111 µM) |
| C[C@H](Oc1cc([C@@H]2CCOC2)nc(-c2onc3c2CCC[C@@]32CCCc3sc(N)c(C#N)c32)n1)[C@@H]1CCCN1C [I-22] | 0.014 µM | 10.2 µM | 0.65 µM | 0.031 µM | 0.112 mg/mL (≈ 200 µM) | 0.104 mg/mL (≈ 185 µM) |
| CCOC(=O)c1ccn(-c2cc(O[C@@H](C)[C@@H]3CCCN3C)nc(-c3noc4c3CCC[C@@]43CCCc4sc(N)c(C#N)c43)n2)n1 [II-23] | 0.053 µM | 2.95 µM | 1.64 µM | 0.124 µM | 0.075 mg/mL (≈ 119 µM) | < 0.001 mg/mL |
| C[C@H]1CN(C)CCCN1c1cc(N2CC[C@H](N(C)C)C2)nc(-c2noc3c2CCC[C@@]32CCCc3sc(N)c(C#N)c32)n1 [II-16] | 0.183 µM | 3.53 µM | 1.92 µM | 1.34 µM | > 0.147 mg/mL | > 0.132 mg/mL |
| C[C@H](Oc1cc(N2C[C@@H](N(C)C)[C@@H](F)C2)nc(-c2noc3c2CCC[C@@]32CCCc3sc(N)c(C#N)c32)n1)[C@@H]1CCCN1C [II-11] | 0.085 µM | 3.51 µM | 1.43 µM | 0.383 µM | > 0.15 mg/mL | > 0.141 mg/mL |
| C[C@H](Oc1cc(N2CCN(C)CC2)nc(-c2noc3c2CCC[C@@]32CCCc3sc(N)c(C#N)c32)n1)[C@@H]1CCCN1[C@@H]1CCOC1 [II-39] | 0.068 µM | 3.6 µM | 1.76 µM | 2.92 µM | – | – |
| C[C@H](Oc1cc(-c2ccn(CC(C)(C)O)n2)nc(-c2onc3c2CCC[C@@]32CCCc3sc(N)c(C#N)c32)n1)[C@@H]1CCCN1C [I-26] | 0.048 µM | 1.07 µM | 2.24 µM | 0.281 µM | – | – |
| CN[C@H]1CCN(c2cc(O[C@@H](C)[C@@H]3CCCN3C)nc(-c3noc4c3CCC[C@@]43CCCc4sc(N)c(C#N)c43)n2)C1 [II-35] | 0.082 µM | 4.8 µM | 0.713 µM | 1.69 µM | – | – |
| C[C@H](Oc1cc(N2CCN(C)C3(CCC3)C2)nc(-c2onc3c2CCC[C@@]32CCCc3sc(N)c(C#N)c32)n1)[C@@H]1CCCN1C [I-44] | 0.091 µM | 1.27 µM | 0.98 µM | 0.925 µM | – | – |
| C[C@H](Oc1cc([C@H]2CCN(C)C2)nc(-c2noc3c2CCC[C@@]32CCCc3sc(N)c(C#N)c32)n1)[C@@H]1CCCN1C [II-38] | 0.011 µM | 2.59 µM | 0.213 µM | 0.074 µM | – | – |
| C[C@H](Oc1cc(N2C[C@H]3CN(C)C[C@H]3C2)nc(-c2noc3c2CCC[C@@]32CCCc3sc(N)c(C#N)c32)n1)[C@@H]1CCCN1C [II-33] | 0.082 µM | 4.12 µM | 1.41 µM | 0.737 µM | – | – |
